Source: ChEMBL document CHEMBL1201862, “PubChem BioAssay data set” (2004)
Where a name gives a salt, the structure may show the parent alone. Blank lines part the entries; values can stand above or below the molecule they belong to. Activity calls are given as the source filed them.

How the values were obtained:
[1] = biological target: Voltage-gated inwardly rectifying potassium channel KCNH2 (Homo sapiens, UniProt Q12809); details: Potency;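 further: confirmatory quantitative high-throughput screen measuring inhibition of hERG channel activity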
[2] = biological target: T1, Carboxy-terminal domain RNA polymerase II polypeptide A small phosphatase 1 (Homo sapiens, UniProt Q9GZU7); assay: CTDSP1 inhibitors, concentration-response, biochemical, absorbance readout, ultra-high-throughput screen actives (AID 540297); type: functional
T1 sequence (Q9GZU7 whole entry): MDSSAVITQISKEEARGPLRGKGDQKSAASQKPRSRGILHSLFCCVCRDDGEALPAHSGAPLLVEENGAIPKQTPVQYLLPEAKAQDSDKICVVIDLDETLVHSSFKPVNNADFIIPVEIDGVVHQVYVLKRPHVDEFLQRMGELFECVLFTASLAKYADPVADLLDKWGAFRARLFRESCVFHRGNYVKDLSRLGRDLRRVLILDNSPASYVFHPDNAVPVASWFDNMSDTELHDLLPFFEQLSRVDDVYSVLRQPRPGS

[3] = biological target: T2, Corticotropin-releasing factor receptor 2/Corticotropin-releasing factor-binding protein (Homo sapiens, UniProt P24387+Q13324); assay: Dose Response confirmation of uHTS hits for small molecule antagonists of the CRF-binding protein and CRF-R2 receptor complex.; type: functional; details: read-out: IC50_Mean
T2 sequence (Q13324 whole entry): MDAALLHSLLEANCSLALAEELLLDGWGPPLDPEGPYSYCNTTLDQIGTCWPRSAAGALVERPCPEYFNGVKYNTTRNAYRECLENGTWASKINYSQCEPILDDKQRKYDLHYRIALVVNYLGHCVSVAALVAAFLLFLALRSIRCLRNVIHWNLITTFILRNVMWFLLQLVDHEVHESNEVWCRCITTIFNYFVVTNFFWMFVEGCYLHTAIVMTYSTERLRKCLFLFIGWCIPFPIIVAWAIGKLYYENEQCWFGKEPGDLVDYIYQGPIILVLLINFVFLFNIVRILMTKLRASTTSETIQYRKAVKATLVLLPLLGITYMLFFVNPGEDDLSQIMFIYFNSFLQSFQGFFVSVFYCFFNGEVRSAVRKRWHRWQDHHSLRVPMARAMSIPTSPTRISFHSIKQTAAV
T2 sequence (P24387 whole entry): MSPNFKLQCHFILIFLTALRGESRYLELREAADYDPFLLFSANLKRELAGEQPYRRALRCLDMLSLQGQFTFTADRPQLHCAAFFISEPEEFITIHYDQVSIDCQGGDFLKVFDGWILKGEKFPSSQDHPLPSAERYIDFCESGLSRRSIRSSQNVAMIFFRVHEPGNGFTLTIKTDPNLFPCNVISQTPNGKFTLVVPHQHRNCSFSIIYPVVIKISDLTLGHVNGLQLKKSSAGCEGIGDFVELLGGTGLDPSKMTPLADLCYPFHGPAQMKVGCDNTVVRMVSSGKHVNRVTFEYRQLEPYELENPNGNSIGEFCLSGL

[4] = blockers of CRF-binding protein–CRF-R2 complex – cell-based, uHTS hits, 384-well, dose response (AID 651639); type: functional, Homo sapiens; details: read-out: IC50_Mean
[5] = biological target: T2, Corticotropin-releasing factor receptor 2/Corticotropin-releasing factor-binding protein; assay: activators of CRF receptor 2 with binding protein – uHTS hits, confirmation (AID 602473); type: functional; details: read-out: EC50_Mean
[6] = biological target: T3, High affinity choline transporter 1 (Homo sapiens, UniProt Q9GZV3); assay: human choline transporter blockers, potency – cell-based, 10-point CRC, membrane potential dye, dose response (AID 588401); type: functional;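 further: membrane potential dye fluorescence of choline-evoked depolarization via CHT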
T3 sequence (Q9GZV3 whole entry): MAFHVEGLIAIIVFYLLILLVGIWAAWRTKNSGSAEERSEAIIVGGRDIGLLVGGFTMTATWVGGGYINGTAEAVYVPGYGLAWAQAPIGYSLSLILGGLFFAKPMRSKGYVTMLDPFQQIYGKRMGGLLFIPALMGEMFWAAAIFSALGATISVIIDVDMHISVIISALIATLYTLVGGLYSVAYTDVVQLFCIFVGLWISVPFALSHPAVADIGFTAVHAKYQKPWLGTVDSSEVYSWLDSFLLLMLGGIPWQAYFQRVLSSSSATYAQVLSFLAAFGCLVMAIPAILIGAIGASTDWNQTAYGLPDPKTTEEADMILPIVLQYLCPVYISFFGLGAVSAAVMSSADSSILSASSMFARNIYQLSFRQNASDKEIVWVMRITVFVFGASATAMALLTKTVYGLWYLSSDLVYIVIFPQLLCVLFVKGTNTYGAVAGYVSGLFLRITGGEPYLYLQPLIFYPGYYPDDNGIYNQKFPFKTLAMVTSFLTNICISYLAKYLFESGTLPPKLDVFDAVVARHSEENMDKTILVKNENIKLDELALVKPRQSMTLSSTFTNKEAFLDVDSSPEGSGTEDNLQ

[7] = biological target: T3, High affinity choline transporter 1; assay: human choline transporter blockers, potency – cell-based, 5-point CRC, membrane potential dye, dose response (AID 504840); type: functional
[8] = biological target: T4, Fatty acid synthase (Homo sapiens, UniProt P49327); assay: inhibition of human FAS-TE enzyme activity – biochemical, kinetic fluorescence intensity, dose response (AID 624326); type: functional;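 further: rate of fluorescence rise from hydrolysis of a fluorogenic O-methyl fluorescein ester substrate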
[9] = biological target: T4, Fatty acid synthase; assay: inhibition of human FAS-TE enzyme activity – biochemical, endpoint fluorescence intensity, uHTS hits, dose response (AID 624327); type: functional;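 further: fluorescence from hydrolysis of an O-methyl fluorescein acyl ester substrate by the enzyme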
[10] = system: BJ; assay: cells; type: functional, cell-based; details: Homo sapiens
[11] = DRD fibroblast viability loss – cell-based, non-viral oncogenic, luminescence, dose response (AID 1934); type: functional; details: Homo sapiens
[12] = system: BJ; assay: BJ-TERT fibroblast viability loss – cell-based, RAS-independent, luminescence, dose response (AID 1933); type: functional; details: Homo sapiens
[13] = Fluorescence-based cell-based high throughput dose response assay for inhibitors of the interaction of nucleotide-binding oligomerization domain containing 2 (NOD2) and the receptor-interacting serine-threonine kinase 2 (RIPK2).; type: functional; details: Homo sapiens
[14] = system: BJ; assay: BJ-TERT-LT-ST fibroblast viability loss – cell-based, RAS-independent, luminescence, dose response (AID 1935); type: functional; details: Homo sapiens;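 further: BJ fibroblasts immortalized with TERT plus LT and ST oncogenes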
[15] = fluconazole-exposed Candida albicans growth modulators – fluorescence, retest, confirmation (AID 2467); type: functional, cell-based
[16] = biological target: Heat shock protein HSP 90-alpha (Homo sapiens, UniProt P07900); type: functional, organism-based
[17] = biological target: T5, Serine/threonine-protein phosphatase (Candida dubliniensis (strain CD36 / CBS 7987 / NCPF 3949 / NRRLY-17841) (Yeast), UniProt B9W6M3); assay: blockers of CaCl2-induced CDRE-lacZ signaling – S. cerevisiae, luminescence, secondary, dose response (AID 2388); type: functional, cell-based;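 further: yeast reporter cells carrying a calcineurin-responsive lacZ construct stimulated with calcium chloride; luminescent beta-galactosidase reporter signal in whole cells rather than isolated phosphatase activity; potency for inhibition where a drop in reporter signal means calcineurin blockade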
T5 sequence (B9W6M3 whole entry): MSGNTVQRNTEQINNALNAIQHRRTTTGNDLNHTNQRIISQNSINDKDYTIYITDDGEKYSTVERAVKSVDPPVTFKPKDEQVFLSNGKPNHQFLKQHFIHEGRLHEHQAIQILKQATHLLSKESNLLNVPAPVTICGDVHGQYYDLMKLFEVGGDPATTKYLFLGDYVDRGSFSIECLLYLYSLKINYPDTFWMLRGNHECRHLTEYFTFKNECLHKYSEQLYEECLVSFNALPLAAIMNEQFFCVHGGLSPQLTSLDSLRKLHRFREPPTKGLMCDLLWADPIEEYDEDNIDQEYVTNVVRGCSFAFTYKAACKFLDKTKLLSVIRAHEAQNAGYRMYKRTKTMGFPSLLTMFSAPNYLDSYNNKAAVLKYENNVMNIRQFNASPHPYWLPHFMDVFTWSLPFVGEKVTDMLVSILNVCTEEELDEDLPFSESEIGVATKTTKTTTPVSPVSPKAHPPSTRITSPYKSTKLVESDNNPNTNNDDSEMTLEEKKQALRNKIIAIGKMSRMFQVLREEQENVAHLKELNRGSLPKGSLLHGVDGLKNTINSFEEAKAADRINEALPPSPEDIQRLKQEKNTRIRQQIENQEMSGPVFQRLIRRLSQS

[18] = Luminescence Cell-Based Dose Retest to Confirm Inhibitors of Cancer Stem Cells. [Related pubchem assays (depositor defined):AID2717, AID2721]; type: functional; details: Homo sapiens
[19] = system: Streptococcus sp. 'group A'; assay: Streptococcus pyogenes SK(-)GAS viability under kanamycin – luminescence, BacTiterGlo, confirmation, counter-screen for streptokinase expression inhibitor project, dose response (AID 1900); type: functional, organism-based
[20] = system: Streptococcus; assay: GAS UMAA2166 growth inhibition – luminescence, BacTiterGlo, counter-screen for streptokinase expression inhibitor project, dose response (AID 1915); type: functional, organism-based;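 further: potency for reduction of bacterial viability or growth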
[21] = NIH-3T3 fibroblast cytotoxicity, dose response, cytotoxicity control, cell-based, fluorescence, Alamar Blue, secondary assay (AID 2327); type: functional;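 further: NIH-3T3 mouse fibroblasts cultured with fluconazole at 8 µg/mL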
[22] = biological target: Genome polyprotein (dengue virus type 2, UniProt P29990); assay: flavivirus cap methylation enzyme inhibition – biochemical, confirmation dose response, primary screen (AID 588689); type: functional
[23] = biological target: T6, Activin receptor type-1 (Homo sapiens, UniProt Q04771); assay: Navigating the Kinome. Panel member name: ACVR1; type: functional
T6 sequence (Q04771 whole entry): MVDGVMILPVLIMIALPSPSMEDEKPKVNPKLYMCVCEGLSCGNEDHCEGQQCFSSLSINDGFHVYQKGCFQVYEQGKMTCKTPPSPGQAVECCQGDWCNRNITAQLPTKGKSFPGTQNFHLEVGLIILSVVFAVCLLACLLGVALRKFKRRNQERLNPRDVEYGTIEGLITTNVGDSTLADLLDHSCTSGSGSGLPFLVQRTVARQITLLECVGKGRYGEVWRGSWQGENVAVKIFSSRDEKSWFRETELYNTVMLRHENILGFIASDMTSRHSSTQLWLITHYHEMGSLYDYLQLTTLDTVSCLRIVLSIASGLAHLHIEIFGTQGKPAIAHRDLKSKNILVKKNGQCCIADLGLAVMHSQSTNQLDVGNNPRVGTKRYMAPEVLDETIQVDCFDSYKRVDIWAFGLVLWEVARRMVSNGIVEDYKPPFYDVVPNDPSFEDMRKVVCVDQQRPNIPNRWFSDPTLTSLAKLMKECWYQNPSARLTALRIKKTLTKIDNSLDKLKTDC

Chain of Voltage-gated inwardly rectifying potassium channel KCNH2 (Q12809 whole entry, the tested form may be a part): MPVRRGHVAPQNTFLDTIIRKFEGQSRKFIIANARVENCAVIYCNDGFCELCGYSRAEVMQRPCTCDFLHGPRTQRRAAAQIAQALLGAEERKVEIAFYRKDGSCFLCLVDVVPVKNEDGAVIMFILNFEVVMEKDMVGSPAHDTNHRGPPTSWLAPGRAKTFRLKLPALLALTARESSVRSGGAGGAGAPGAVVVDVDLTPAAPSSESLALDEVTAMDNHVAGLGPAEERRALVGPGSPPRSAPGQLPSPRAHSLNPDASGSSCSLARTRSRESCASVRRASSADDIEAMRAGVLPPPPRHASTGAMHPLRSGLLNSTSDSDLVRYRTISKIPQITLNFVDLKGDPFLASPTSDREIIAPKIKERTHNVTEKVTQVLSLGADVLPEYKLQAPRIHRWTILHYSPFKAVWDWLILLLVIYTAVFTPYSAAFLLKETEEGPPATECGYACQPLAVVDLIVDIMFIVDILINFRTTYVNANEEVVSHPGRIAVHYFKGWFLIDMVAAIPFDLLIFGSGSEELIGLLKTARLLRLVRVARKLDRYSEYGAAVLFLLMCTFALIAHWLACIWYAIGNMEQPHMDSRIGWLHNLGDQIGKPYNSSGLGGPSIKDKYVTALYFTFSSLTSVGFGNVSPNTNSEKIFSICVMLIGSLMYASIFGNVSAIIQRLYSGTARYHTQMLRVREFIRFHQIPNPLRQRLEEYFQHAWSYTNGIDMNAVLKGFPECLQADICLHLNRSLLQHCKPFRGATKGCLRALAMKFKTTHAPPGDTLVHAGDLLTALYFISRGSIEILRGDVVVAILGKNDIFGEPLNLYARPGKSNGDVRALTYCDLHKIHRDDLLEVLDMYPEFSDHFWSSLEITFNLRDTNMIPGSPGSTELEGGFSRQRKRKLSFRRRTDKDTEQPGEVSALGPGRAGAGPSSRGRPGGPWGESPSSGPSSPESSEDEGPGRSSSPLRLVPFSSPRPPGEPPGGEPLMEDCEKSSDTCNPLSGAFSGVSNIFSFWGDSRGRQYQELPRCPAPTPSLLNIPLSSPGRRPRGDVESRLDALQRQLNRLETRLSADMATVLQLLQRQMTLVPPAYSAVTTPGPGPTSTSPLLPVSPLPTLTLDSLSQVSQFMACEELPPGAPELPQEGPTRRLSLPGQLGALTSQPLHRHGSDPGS
T4 sequence (P49327 whole entry): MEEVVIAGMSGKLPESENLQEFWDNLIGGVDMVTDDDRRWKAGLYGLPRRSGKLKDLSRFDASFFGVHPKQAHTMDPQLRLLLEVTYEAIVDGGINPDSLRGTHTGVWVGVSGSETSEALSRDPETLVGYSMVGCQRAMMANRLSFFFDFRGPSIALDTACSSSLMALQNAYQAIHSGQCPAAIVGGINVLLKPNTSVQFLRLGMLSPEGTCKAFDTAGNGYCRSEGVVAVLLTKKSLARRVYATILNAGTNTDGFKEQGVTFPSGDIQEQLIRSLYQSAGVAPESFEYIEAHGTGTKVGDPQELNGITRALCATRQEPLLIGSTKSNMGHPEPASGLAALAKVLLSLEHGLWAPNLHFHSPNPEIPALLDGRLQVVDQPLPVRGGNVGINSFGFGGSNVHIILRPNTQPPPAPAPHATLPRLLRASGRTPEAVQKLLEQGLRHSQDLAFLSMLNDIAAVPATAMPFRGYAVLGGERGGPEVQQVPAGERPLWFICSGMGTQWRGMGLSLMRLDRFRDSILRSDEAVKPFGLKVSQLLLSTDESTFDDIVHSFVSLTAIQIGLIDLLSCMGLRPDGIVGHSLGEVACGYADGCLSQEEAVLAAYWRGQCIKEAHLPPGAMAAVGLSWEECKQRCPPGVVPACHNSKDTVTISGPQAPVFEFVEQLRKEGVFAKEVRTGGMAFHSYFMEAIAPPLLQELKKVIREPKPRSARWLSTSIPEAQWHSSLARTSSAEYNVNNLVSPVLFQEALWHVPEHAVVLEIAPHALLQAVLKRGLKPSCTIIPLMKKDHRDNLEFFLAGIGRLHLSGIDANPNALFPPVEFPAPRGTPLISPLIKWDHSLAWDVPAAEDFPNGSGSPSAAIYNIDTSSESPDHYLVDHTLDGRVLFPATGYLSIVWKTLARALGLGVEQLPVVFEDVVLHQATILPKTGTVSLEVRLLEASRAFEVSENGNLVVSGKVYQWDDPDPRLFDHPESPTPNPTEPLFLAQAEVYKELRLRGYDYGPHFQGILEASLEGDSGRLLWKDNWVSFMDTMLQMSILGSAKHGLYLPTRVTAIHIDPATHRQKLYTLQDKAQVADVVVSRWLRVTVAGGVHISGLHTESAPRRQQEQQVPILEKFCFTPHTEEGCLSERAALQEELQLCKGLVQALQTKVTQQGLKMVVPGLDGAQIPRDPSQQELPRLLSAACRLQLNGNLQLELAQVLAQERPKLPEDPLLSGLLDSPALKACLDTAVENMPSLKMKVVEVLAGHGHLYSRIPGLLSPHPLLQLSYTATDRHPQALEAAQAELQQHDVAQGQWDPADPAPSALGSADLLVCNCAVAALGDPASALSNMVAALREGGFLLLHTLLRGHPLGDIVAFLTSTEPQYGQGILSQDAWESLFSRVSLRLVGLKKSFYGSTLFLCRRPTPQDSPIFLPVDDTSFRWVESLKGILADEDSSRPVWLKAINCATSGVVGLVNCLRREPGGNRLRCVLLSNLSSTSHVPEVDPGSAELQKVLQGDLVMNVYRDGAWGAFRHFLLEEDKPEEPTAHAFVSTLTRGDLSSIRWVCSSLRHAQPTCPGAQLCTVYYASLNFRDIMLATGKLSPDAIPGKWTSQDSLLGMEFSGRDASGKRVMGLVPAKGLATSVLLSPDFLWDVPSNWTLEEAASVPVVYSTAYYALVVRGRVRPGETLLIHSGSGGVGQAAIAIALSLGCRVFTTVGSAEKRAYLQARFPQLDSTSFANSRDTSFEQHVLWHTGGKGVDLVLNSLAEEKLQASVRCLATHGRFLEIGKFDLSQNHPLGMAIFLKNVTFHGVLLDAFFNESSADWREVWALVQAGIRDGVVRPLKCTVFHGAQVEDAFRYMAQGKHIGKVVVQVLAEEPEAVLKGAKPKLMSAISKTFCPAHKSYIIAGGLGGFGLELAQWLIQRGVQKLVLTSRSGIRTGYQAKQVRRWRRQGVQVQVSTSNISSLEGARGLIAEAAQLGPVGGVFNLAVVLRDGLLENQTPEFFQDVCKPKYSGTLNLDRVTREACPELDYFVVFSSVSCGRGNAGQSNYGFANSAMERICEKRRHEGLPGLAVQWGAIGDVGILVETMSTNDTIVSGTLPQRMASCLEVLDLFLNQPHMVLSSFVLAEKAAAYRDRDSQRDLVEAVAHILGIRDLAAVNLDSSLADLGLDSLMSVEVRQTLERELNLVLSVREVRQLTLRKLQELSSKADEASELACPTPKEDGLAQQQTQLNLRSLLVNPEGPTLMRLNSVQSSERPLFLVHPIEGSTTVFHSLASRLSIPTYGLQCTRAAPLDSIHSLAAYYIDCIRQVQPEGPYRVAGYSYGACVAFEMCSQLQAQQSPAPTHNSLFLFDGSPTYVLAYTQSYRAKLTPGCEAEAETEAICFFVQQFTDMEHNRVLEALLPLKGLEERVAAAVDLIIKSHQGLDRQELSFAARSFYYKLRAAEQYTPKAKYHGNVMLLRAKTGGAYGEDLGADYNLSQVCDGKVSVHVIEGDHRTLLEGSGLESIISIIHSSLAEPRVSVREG
Chain of Genome polyprotein (P29990 2492-3391 limits assumed): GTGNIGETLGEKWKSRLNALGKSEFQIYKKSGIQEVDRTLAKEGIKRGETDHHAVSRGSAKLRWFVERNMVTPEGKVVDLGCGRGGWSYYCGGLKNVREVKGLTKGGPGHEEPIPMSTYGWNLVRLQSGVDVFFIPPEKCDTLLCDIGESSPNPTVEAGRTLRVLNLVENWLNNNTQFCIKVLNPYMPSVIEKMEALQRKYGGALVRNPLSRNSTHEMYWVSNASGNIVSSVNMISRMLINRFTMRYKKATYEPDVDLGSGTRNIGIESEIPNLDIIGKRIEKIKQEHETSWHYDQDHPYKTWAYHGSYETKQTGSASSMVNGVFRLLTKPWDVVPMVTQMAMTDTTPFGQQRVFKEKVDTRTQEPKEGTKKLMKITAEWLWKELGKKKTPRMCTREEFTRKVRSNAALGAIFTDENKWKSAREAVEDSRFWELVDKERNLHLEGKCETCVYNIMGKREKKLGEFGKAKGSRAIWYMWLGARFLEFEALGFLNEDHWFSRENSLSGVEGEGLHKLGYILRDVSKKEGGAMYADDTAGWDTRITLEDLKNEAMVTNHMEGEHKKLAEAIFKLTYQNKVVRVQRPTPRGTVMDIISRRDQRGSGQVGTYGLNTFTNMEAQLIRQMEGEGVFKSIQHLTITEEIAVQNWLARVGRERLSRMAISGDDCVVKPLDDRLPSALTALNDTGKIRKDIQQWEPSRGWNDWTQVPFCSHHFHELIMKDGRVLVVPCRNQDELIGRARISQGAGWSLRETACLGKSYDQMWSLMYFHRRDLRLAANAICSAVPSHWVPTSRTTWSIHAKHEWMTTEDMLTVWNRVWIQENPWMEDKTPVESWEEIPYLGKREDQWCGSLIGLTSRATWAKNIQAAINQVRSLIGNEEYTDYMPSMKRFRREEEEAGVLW

SMILES: NCCNS(=O)(=O)c1cccc2c(Cl)cccc12
AC50 [1]: 22.4 µM (inconclusive)

SMILES: CC1CCCCC1NC(=O)c1cccc(S(=O)(=O)N2CCN(C)CC2)c1 (configuration not stated)
IC50 [6]: 4.22 µM (active) | IC50 [7]: 4.37 µM (active)

SMILES: C=CCOc1cccc(C(=O)/C=C2/C(=O)Nc3ccccc32)c1
EC50 [10]: 31.5 µM (inconclusive) | EC50 [11]: 9.43 µM (inconclusive) | EC50 [12]: 5.47 µM (inconclusive) | IC50 [13]: 5.51 µM (active) | EC50 [14]: 7.99 µM (active)

SMILES: CN(C)CCCCSC(=N)N
AC50 [1]: 35.5 µM (inconclusive)

SMILES: O=C(NNC1=C(C(=O)C(F)(F)F)CCC1)c1ccc(Br)cc1
EC50 [15]: 0.152 µM (active) | AC50 [16]: 1.11 µM (active) | IC50 [7]: 11.2 µM (active) | EC50 [17]: > 180 µM (inactive) | AC50 [18]: 3.16 µM (active) | EC50 [19]: 1.02 µM (active) | EC50 [20]: 2.23 µM (active) | EC50 [21]: > 75 µM (inactive)

SMILES: O=C(NN1C(=O)/C(=C/c2cccs2)SC1=S)c1ccncc1
IC50 [6]: 7.13 µM (active) | IC50 [7]: 7.57 µM (active)

SMILES: CC(C)(C)Cc1nnc(NC(=O)Cc2cccs2)s1
IC50 [2]: 4.36 µM (active)

SMILES: CCOC(=O)C1=C(C)c2ccccc2OC1(C(=O)OCC)c1ccccc1 (configuration not stated)
IC50 [2]: 34.2 µM (active)

SMILES: O=C(Nc1cccc(Cl)c1)Nc1ncc(CCNc2ncnc3ccsc23)s1 [SNS-314]
Ki [23]: > 3.98 µM (inactive)

SMILES: CCN(CC)CCNC(=O)c1cc(S(C)(=O)=O)ccc1OC [TIAPRIDE HYDROCHLORIDE]
AC50 [1]: 35.5 µM (inconclusive)

Next, values leading:

IC50 [2]: 6.27 µM (active)
SMILES: O=C(COc1cccnc1[N+](=O)[O-])Nc1ncc(Cl)cc1Cl

IC50 [3]: 21.4 µM (active) | IC50 [4]: > 20 µM (inactive) | EC50 [5]: > 53 µM (inactive)
SMILES: COc1ccc(-c2c(C)nn3c(N4CCCCCC4)cc(C)nc23)cc1OC

IC50 [6]: 3.12 µM (active) | IC50 [7]: 2.98 µM (active) | IC50 [8]: 16.3 µM (active) | IC50 [9]: 18.8 µM (active)
SMILES: Cn1c(/C=C/N(Cc2ccccc2)c2ccccc2)c([N+](=O)[O-])c(=O)n(C)c1=O

IC50 [2]: 7.45 µM (active)
SMILES: Cc1nn(CCc2nnn[nH]2)c2nc(-c3ccccc3)cc(C(F)(F)F)c12

IC50 [3]: 18.7 µM (active) | IC50 [4]: 14.9 µM (active) | AC50 [16]: 8.19 µM (active) | EC50 [5]: > 53 µM (inactive) | IC50 [22]: 31.7 µM (active)
SMILES: Cc1ccc(S(=O)(=O)Nc2ccc3ccccc3c2[N+](=O)[O-])cc1

IC50 [6]: 7.51 µM (active) | IC50 [7]: 6.59 µM (active)
SMILES: OCCN1CCN(c2ncnc3scc(-c4ccc(F)cc4)c23)CC1

IC50 [3]: 7.93 µM (active) | IC50 [4]: 12.1 µM (active) | EC50 [5]: 35.2 µM (active)
SMILES: COc1cc(CCc2ccccc2)c(C(=O)O)c(O)c1CC=C(C)C [AMORFRUTIN A]
